ChEMBL document CHEMBL5665443, “Enzyme Inhibitor Single Concentration assay results for EUbOPEN Chemogenomics Library” (2024)

What was measured:
[1] = target: T1, Endonuclease III-like protein 1 (Homo sapiens) (UniProt P78549); conditions: Hit No;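 further: enzyme assay tracking NTHL1 cutting and release of a quenched double-stranded DNA oligo substrate, read as fluorescence at 594 nm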
T1 sequence (whole entry): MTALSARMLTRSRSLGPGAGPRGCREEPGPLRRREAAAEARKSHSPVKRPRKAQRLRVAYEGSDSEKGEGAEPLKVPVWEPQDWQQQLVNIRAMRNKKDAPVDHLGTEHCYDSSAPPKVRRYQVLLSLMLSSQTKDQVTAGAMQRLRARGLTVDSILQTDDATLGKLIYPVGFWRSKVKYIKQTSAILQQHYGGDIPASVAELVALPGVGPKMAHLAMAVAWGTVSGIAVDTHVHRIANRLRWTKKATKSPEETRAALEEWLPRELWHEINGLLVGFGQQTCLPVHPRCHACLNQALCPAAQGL

[2] = target: G/T mismatch-specific thymine DNA glycosylase (Homo sapiens) (UniProt Q13569); conditions: Hit No;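 further: human TDG cleavage of quenched duplex DNA oligonucleotides coupled to APE1, strand release read as fluorescence at 594 nm, inhibition of TDG activity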
[3] = target: T2, Adenine DNA glycosylase (Homo sapiens) (UniProt Q9UIF7); conditions: Hit No;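 further: human MUTYH activity read as 594 nm fluorescence from cleavage and release of a quenched DNA duplex, coupled with APE1 for strand incision, lower signal meaning inhibition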
T2 sequence (whole entry): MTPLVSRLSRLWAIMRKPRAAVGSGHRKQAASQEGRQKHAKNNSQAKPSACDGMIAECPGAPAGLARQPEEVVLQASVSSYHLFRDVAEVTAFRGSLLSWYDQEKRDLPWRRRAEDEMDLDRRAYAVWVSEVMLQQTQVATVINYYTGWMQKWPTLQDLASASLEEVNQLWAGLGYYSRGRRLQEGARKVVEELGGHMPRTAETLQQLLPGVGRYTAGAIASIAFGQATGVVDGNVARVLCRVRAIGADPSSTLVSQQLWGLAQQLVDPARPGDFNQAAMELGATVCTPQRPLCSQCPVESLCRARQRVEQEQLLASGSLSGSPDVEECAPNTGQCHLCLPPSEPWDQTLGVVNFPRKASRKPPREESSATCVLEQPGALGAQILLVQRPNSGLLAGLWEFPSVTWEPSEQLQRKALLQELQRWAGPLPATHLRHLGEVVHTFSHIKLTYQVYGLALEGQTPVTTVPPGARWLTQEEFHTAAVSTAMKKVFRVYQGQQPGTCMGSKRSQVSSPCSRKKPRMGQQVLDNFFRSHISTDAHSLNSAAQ

[4] = target: N-glycosylase/DNA lyase (Homo sapiens) (UniProt O15527); conditions: Hit No;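 further: OGG1 cleavage of a quenched duplex DNA oligonucleotide, coupled to APE1 for strand incision, read as fluorescence at 594 nm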
[5] = target: Uracil-DNA glycosylase (Homo sapiens) (UniProt P13051); conditions: Hit No;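 further: UNG excision on a quenched double-stranded DNA oligo probe, with APE1 added for strand incision and turnover, read as fluorescence at 594 nm as strands separate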
[6] = target: Endonuclease 8-like 1 (Homo sapiens) (UniProt Q96FI4); conditions: Compound Concentration 10.0 uM, Hit No;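 further: fluorescence at 594 nm from quenched duplex DNA oligonucleotides released by NEIL1 cleavage and strand separation, reported as reduction of this enzyme activity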
[7] = target: T3, Single-strand selective monofunctional uracil DNA glycosylase (Homo sapiens) (UniProt Q53HV7); conditions: Hit No;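 further: enzymatic SMUG1 assay coupled with APE1, reading fluorescence at 594 nm released when a quenched double-stranded DNA oligonucleotide substrate is cleaved and separated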
T3 sequence (whole entry): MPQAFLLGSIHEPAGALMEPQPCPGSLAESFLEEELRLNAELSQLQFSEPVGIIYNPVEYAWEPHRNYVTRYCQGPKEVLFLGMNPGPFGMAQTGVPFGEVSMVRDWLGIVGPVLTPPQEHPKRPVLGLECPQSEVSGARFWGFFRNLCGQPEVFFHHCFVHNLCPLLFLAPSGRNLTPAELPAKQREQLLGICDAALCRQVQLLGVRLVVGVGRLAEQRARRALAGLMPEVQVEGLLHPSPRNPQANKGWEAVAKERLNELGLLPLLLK

[8] = target: Methyl-CpG-binding domain protein 4 (Homo sapiens) (UniProt O95243); conditions: Hit No;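 further: MBD4 activity read as fluorescence at 594 nm from cleavage and release of a quenched duplex DNA oligonucleotide, with APE1 coupled to incise the strand and raise turnover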
[9] = target: T4, Endonuclease 8-like 2 (Homo sapiens) (UniProt Q969S2); conditions: Compound Concentration 10.0 uM;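 further: fluorescence at 594 nm reports NEIL2 cutting and release of a quenched double-stranded DNA oligo substrate, reduced signal read as inhibition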
T4 sequence (whole entry): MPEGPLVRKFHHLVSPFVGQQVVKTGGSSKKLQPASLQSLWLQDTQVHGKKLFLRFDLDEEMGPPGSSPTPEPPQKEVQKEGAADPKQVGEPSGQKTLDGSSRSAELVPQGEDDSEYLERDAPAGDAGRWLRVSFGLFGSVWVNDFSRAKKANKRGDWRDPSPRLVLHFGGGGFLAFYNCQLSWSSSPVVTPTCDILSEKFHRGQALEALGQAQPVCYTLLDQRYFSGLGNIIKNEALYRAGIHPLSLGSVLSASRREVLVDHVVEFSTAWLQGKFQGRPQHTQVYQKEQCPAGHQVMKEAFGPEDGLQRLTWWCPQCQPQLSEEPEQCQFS

Sequence of Uracil-DNA glycosylase (Homo sapiens) (P13051 whole entry): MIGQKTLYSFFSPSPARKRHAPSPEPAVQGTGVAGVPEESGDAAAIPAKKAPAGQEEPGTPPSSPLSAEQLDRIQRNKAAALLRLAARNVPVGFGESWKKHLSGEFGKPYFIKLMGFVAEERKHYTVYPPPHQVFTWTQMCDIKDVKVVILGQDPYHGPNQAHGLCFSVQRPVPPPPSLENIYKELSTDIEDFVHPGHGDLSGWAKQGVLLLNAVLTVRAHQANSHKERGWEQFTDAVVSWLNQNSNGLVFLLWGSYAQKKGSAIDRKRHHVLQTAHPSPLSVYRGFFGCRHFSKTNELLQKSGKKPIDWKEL
Sequence of Methyl-CpG-binding domain protein 4 (Homo sapiens) (O95243 whole entry, the tested form may be a part): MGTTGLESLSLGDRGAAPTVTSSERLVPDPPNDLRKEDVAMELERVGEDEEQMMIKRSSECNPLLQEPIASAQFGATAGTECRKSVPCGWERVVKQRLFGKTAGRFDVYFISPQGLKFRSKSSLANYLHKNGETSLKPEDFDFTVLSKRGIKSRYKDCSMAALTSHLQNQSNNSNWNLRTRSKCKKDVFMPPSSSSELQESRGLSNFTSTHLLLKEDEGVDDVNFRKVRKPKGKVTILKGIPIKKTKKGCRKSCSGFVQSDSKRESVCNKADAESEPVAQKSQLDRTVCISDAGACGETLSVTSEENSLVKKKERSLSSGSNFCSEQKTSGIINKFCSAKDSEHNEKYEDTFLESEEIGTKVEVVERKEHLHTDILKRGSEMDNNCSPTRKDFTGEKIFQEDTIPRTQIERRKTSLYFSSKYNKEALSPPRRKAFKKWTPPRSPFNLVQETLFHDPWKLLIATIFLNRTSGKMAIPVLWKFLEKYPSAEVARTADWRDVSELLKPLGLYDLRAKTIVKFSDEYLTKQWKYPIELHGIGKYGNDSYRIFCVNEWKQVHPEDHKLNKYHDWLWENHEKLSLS
Sequence of Endonuclease 8-like 1 (Homo sapiens) (Q96FI4 whole entry): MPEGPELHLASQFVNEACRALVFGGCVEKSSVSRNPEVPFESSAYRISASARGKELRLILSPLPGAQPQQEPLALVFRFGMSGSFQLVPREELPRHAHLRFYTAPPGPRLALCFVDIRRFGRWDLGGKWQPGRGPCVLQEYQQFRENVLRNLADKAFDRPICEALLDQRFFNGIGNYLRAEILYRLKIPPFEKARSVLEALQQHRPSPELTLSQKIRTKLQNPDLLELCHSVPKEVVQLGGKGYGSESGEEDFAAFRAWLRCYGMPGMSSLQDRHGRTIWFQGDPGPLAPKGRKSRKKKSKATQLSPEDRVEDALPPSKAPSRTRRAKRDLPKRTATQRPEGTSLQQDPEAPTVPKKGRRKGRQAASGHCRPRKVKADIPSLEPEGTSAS
Sequence of G/T mismatch-specific thymine DNA glycosylase (Homo sapiens) (Q13569 whole entry): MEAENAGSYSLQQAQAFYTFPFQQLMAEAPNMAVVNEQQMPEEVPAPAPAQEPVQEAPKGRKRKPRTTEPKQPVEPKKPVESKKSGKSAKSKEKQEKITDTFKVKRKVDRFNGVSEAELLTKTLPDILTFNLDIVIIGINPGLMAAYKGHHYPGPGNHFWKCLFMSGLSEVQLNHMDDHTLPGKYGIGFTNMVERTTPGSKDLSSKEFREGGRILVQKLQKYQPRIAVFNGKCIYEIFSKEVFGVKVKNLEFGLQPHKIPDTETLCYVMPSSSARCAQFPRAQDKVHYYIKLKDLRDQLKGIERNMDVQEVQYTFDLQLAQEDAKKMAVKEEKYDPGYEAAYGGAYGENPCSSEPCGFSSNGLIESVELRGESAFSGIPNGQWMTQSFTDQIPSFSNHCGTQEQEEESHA
Sequence of N-glycosylase/DNA lyase (Homo sapiens) (O15527 whole entry): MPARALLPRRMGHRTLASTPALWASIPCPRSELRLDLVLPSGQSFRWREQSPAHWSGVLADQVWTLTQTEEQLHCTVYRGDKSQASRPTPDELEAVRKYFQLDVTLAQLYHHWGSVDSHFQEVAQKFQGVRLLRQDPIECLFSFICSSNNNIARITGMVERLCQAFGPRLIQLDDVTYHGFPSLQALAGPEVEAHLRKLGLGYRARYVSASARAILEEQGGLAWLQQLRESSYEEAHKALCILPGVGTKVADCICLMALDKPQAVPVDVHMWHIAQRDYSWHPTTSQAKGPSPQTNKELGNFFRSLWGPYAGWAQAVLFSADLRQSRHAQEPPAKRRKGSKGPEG

Compound | inhibition ([1]; Compound Concentration 10.0 uM) [%] | inhibition ([2]; Compound Concentration 10.0 uM) [%] | inhibition ([3]; Compound Concentration 10.0 uM) [%] | inhibition ([4]; Compound Concentration 10.0 uM) [%] | inhibition ([5]; Compound Concentration 10.0 uM) [%] | inhibition [6] [%] | inhibition ([7]; Compound Concentration 10.0 uM) [%] | inhibition ([8]; Compound Concentration 10.0 uM) [%] | inhibition ([9]; Hit No) [%] | inhibition ([9]; Hit Yes) [%] | inhibition ([1]; Compound Concentration 1.0 uM) [%] | inhibition ([2]; Compound Concentration 1.0 uM) [%] | inhibition ([3]; Compound Concentration 1.0 uM) [%] | inhibition ([4]; Compound Concentration 1.0 uM) [%] | inhibition ([5]; Compound Concentration 1.0 uM) [%] | inhibition ([7]; Compound Concentration 1.0 uM) [%] | inhibition ([8]; Compound Concentration 1.0 uM) [%]
O=C(N[C@@H]1C2CCN(CC2)[C@H]1Cc1cccnc1)c1cc2ccccc2o1 | 27.8 | -0.849 | -1.82 | -7.23 | -1.31 | 5.2 | -7.47 | -7.25 | 1.94 |  |  |  |  |  |  |  | 
CCCCN1CCC(COC(=O)c2cc(Cl)c(N)c3c2OCCO3)CC1 | -3.21 | 14.3 | -7.02 | -1.24 | -2.45 | 5.28 | 8.49 | 4.39 | 2.51 |  |  |  |  |  |  |  | 
CC(C)OC(=O)C1=CN(C(=O)c2ccc(F)c(F)c2)CC(C)(C)c2c1[nH]c1ccccc21 | -1.95 | 46.7 | 4.92 | 18.3 | 5.72 | -3.02 | 27.6 | 66.8 | 3.08 |  |  |  |  |  |  |  | 
Cc1cn([C@@H](C)CC#N)c(=O)c2cc(Cn3nc(C(F)F)cc3Cl)nn12 | 5.29 | 99.3 | 0.387 | 9.38 | 2.85 | -0.442 | 19.8 | 56.2 | 0.0213 |  |  |  |  |  |  |  | 
COCCc1ccc(-c2c(C)nc3c(N4CCOCC4)ccnn23)cn1 | -3.26 | 47.5 | 3.45 | 9.87 | 6.75 | -9.68 | 17.6 | 79.3 | 0.531 |  |  |  |  |  |  |  | 
COc1cc2nc(N3CCN(C(=O)COc4c(OC)cccc4C(C)C)CC3)nc(N)c2cc1OC | 17.9 | 4.22 | -1.51 | -9.97 | 3.87 | 10.1 | -5.21 | -7.62 |  | 50.6 |  |  |  |  |  |  | 
CN(CCOc1ccc(C[C@H](Nc2ccccc2C(=O)c2ccccc2)C(=O)O)cc1)c1ccccn1 | -4.57 | 30.8 | -3.55 | 24.7 | -0.00636 | 5.16 | 8.44 | 67 | 4.36 |  |  |  |  |  |  |  | 
CC(C)NC(=O)N1CC[C@H](NC2=Nc3cc(F)ccc3N(CC(F)F)c3ccc(Cl)cc32)C1 | 4.27 | 62.4 | 13.1 | -3.5 | 8.59 | -1.58 | 26.7 | 0.374 | -0.0337 |  |  |  |  |  |  |  | 
CCCCN(Cc1ccccc1)C(=O)c1ccc(S(=O)(=O)Nc2ccccc2)cc1 | 2.88 | 61.1 | 28.5 | 15.6 | 2.05 | -9.37 | 26.3 | -4.89 | -10 |  |  |  |  |  |  |  | 
CN1CCN(C(=O)C(C)(C)c2ccc(C(=O)Nc3cn4cc(-c5ccncc5)ccc4n3)cc2)CC1 | 9.89 | 60.5 | 32.7 | 0.918 | 6.5 | 1.07 | 18.7 | 60.8 | -4.06 |  | 4.27 | 36.3 | 33.1 | -1.57 | 0.265 | 14.8 | -4.56
